{"source": "patent US7410635B2", "about": "(priority 2003, dated 2008)", "details": "pH 3", "data": [{"smiles": "C=CCC1(CC(C)C)C(=O)NC(=O)NC1=O", "note": "[Butalbital, 5-(2-Methylpropyl)-5-(2-propenyl)-2,4,6(1H,3H,5H) -pyrim idinetrione]", "values": [{"measurement": "average degradation", "value": 1.2, "unit": "%"}]}]}
